Reference: paper PMC10187093, “Synthesis, in silico modelling, and in vitro biological evaluation of substituted pyrazole derivatives as potential anti-skin cancer, anti-tyrosinase, and antioxidant agents” (Journal of Enzyme Inhibition and Medicinal Chemistry, 2023)

Experiments:
Format in all cases: cell-based, human
SK-MEL-28 [1] = assay: Colony formation assay, SK-MEL-28; details: 0, ½IC50, IC50, 1½IC50; 14 days; vs untreated control
Protocol: Cells were then trypsinised, and 1000 viable cells from each treated group were seeded on […] in 10 mL of the medium, and incubated for an additional 14 days before fixation and crystal violet staining, imaging, and colonies assessment as previously described[109]^,[116]. The plates were scanned, and the area of clones was quantified with the free software Image J (Bethesda, MD) (https://imagej.nih.gov/ij/).

SK-MEL-28 [2] = assay: MTT antiproliferative/cytotoxicity assay, SK-MEL-28; details: Homo sapiens, SK-MEL-28, 48 h, melanoma, MTT, 48 h; read-out: IC50 SKMEL-28
Protocol: (§1) Human-derived GFP-expressing melanoma A375 and epidermoid carcinoma A431 cell lines were purchased from Angio-Proteomie (Boston, MA). Human melanoma carcinoma SK-MEL-28 and human immortalised keratinocytes (HaCaT) cell lines were acquired from American Type Culture Collection (ATCC; Manassas, VA). Human cutaneous SCC cell line SCC-12[192] was generously provided by Dr. James G. Rheinwald to Dr. Tatiana Efimova. Except SK-MEL-28, which was cultured in an RPMI-1640 medium supplemented with 5% FBS, all other human immortalised cell lines were grown and maintained in DMEM containing varying percentages of FBS; 5% FBS for A431, SCC-12, and HaCaT lines, and 10% FBS for A375. All culture media were routinely supplemented with 1% PEST 100X (100 U/mL penicillin, 100 μg/mL streptomycin), and cells were cultured in incubators maintained at 37 °C under an atmosphere of 95% humidity, 20% O2, and 5% CO2. The growth media of incubated cells were changed every 2–3 days until they attained 70–80% confluence, after which they were sub-cultured for experiments and re-passaging. DMSO was used as the vehicle to prepare a 10 mM stock solution of the test compounds.
(§2) Stock solutions (10 mM) were prepared by dissolving each compound to be screened in DMSO. From these stock solutions, escalating concentrations were prepared using the corresponding cell growth media as a diluent, and the cells (65–75% confluent) were treated with (0–40 µM) or without the drug in sext- to octuplicate and incubated for 48 h. All treatment protocols and controls were prepared as previously described.
(§3) The potency and cytotoxicity of the test compounds against two cutaneous melanoma (A375 and SK-MEL-28) and two non-melanoma (A431 and SCC-12) SC cell lines in addition to a control immortalised normal human epidermal keratinocytes (HaCaT) cell line were assessed by MTT assay as previously described.

SCC-12 = assay: MTT antiproliferative/cytotoxicity assay, SCC-12
Protocol: (§4) Human-derived GFP-expressing melanoma A375 and epidermoid carcinoma A431 cell lines were purchased from Angio-Proteomie (Boston, MA). Human melanoma carcinoma SK-MEL-28 and human immortalised keratinocytes (HaCaT) cell lines were acquired from American Type Culture Collection (ATCC; Manassas, VA). […] The growth media of incubated cells were changed every 2–3 days until they attained 70–80% confluence, after which they were sub-cultured for experiments and re-passaging. DMSO was used as the vehicle to prepare a 10 mM stock solution of the test compounds.
(§5) Stock solutions (10 mM) were prepared by dissolving each compound to be screened in DMSO.

A431 = assay: Immunoblotting of apoptosis markers, A431; details: western blot, 48 h, vs untreated
Protocol: Immunoblotting was performed according to standard procedures of the Bio-Rad electrophoresis system (Bio-Rad, Hercules, CA) as described earlier. Briefly, protein extracts were obtained by lysing cells in RIPA buffer containing protease inhibitors, and were resolved by 4–12% polyacrylamide ready mini-PROTEAN TGX gel electrophoresis with sodium dodecyl sulphate (SDS) running buffer. Gels were electrotransferred to 0.45 μm nitrocellulose membranes (Bio-Rad, Hercules, CA) in Tris-glycine (TG) buffer using a Trans-Blot Turbo Transfer Pack according to manufacturer’s instructions. Membranes were incubated for 1 h in 5–7% non-fat powdered milk dissolved in TBST (Tris-buffered saline containing 0.05% Tween 20) or 5% BSA for phosphorylated proteins, to saturate nonspecific binding sites, followed by an overnight incubation (4 °C) with primary antibodies. Membranes were washed 5× with TBST and treated with suitable HRP-conjugated secondary antibodies (Amersham Life Science Inc., Arlington Height, IL) for another 2 h at room temperature, followed by additional wash steps and chemiluminescence-based detection with the Amersham ECL Prime detection reagent kit and the Bio-Rad Quantity One ChemiDoc™ detection and imaging analysis software systems as described earlier[108]^,[109].

GFP-A431 = assay: MTT antiproliferative/cytotoxicity assay, A431; details: Homo sapiens, A-431, 48 h, non-melanoma, MTT, 48 h; read-out: IC50 GFP-A431
Protocol: as §4, §5

HaCaT = assay: MTT cytotoxicity assay, noncancerous HaCaT keratinocytes; details: Homo sapiens, HaCaT; control noncancerous keratinocytes, MTT, 48 h; read-out: IC50 HaCaT
Protocol: as §1, §2, §3

O=C1CC(c2ccccc2)=NN1c1ccc(Br)cc1 [P25]
colony formation, SK-MEL-28 (SK-MEL-28 [1]): significant concentration-dependent reductions in the relative percentage of colonies formed
IC50 (SK-MEL-28 [2]): 7.6 ± 0.6 µM
IC50 (SCC-12; Homo sapiens, SCC12, 48 h, non-melanoma, MTT, 48 h, read-out: IC50 SCC-12): 12.2 ± 0.6 µM
selectivity index (SI) SCC-12 (SCC-12; IC50 HaCaT divided by IC50 SCC-12): ~2.5
activated caspase-3, caspase-9 and cleaved PARP levels, A431 (A431; concentration-dependent): substantially increased levels
anti-apoptotic Bcl-2 protein levels, A431 (A431): corresponding decreases
pro-apoptotic Bax expression, A431 (A431): dose-dependent amplified expression
IC50 (GFP-A431): 3.7 ± 0.5 µM
IC50 (HaCaT): 30.5 ± 2 µM
